Laboratory results taken from ChEMBL document CHEMBL3885861, “Open TG-GATES”.

Organism: Rattus norvegicus
Experiment: Open TG-GATES - Regimen: Daily Repeat
Type: toxicity, organism-based, Sprague-Dawley
Set-up: regimen Daily Repeat, gender Male, age 6 weeks
Conditions: in vivo, po, 100 mg/kg, route gavage, dose level Low; for APTT / Bas / Eos / Fbg / Hb / Ht / Lym / MCH / MCHC / MCV / Mono / Neu / PT / Plat / RBC / Ret / WBC: tissue Blood; for KIDNEY_L / KIDNEY_R / KIDNEY_TOTAL: tissue Kidney; for LIVER: tissue Liver; for A/G / ALP / ALT / AST / BUN / CRE / Ca / Cl / DBIL / GLC / IP / K / LDH / Na / PL / RALB / TBIL / TC / TG / TP / gamma-GTP: tissue Plasma

In the case of `CCN1CCCC1CNC(=O)c1cc(S(N)(=O)=O)ccc1OC` (configuration not stated) [SULPIRIDE], the TERMINAL_BW (72 h, time 3 day) is reported as 231.2 g, the APTT (72 h, time 3 day) is reported as 17.2 s and the Bas (72 h, time 3 day) is reported as 0%. For the same compound, the Eos (72 h, time 3 day) was 1%, the Fbg (72 h, time 3 day) was 274.6 mg/dL and the Hb (72 h, time 3 day) was 13.6 g/dL. It also gave a Ht (72 h, time 3 day) of 41.3%, a Lym (72 h, time 3 day) of 74.8% and an MCH (72 h, time 3 day) of 20.9 pg. It also gave an MCHC (72 h, time 3 day) of 32.8%, an MCV (72 h, time 3 day) of 63.7 fL and a Mono (72 h, time 3 day) of 3%. For the same compound, the Neu (72 h, time 3 day) was 20.8%, the PT (72 h, time 3 day) was 13.2 s and the Plat (72 h, time 3 day) was 122 x10_4/uL. The RBC (72 h, time 3 day) was 649.2 x10_4/ul, the Ret (72 h, time 3 day) was 6.5% and the WBC (72 h, time 3 day) was 95.3 x10_2/uL. It also gave a KIDNEY_L (72 h, time 3 day) of 1 g, a KIDNEY_R (72 h, time 3 day) of 1 g and a KIDNEY_TOTAL (72 h, time 3 day) of 2 g. The LIVER (72 h, time 3 day) was 10.7 g, the A/G (72 h, time 3 day) was 0.9 and the ALP (72 h, time 3 day) was 1543 IU/L. The ALT (72 h, time 3 day) was 42.4 IU/L, the AST (72 h, time 3 day) was 66.4 IU/L and the BUN (72 h, time 3 day) was 13.6 mg/dL. The CRE (72 h, time 3 day) was 0.2 mg/dL, the Ca (72 h, time 3 day) was 11 mg/dL and the Cl (72 h, time 3 day) was 105.2 meq/L. For the same compound, the DBIL (72 h, time 3 day) was 0.01 mg/dL, the GLC (72 h, time 3 day) was 186.8 mg/dL and the IP (72 h, time 3 day) was 7.4 mg/dL. It also gave a K (72 h, time 3 day) of 4.2 meq/L, an LDH (72 h, time 3 day) of 70.4 IU/L and a Na (72 h, time 3 day) of 141 meq/L. The PL (72 h, time 3 day) was 142.2 mg/dL, the RALB (72 h, time 3 day) was 2.6 g/dL and the TBIL (72 h, time 3 day) was 0.058 mg/dL. The TC (72 h, time 3 day) was 72 mg/dL, the TG (72 h, time 3 day) was 106.6 mg/dL and the TP (72 h, time 3 day) was 5.6 g/dL. For the same compound, the gamma-GTP (72 h, time 3 day) was 1 IU/L, the TERMINAL_BW ([…], time 7 day) was 265 g and the TERMINAL_BW ([…], time 14 day) was 328.7 g. It also gave a TERMINAL_BW ([…], time 28 day) of 377.8 g, an APTT ([…], time 7 day) of 19.5 s and a Bas ([…], time 7 day) of 0.6%. The Eos ([…], time 7 day) was 1.2%, the Fbg ([…], time 7 day) was 289.6 mg/dL and the Hb ([…], time 7 day) was 14 g/dL. It also gave a Ht ([…], time 7 day) of 42.1%, a Lym ([…], time 7 day) of 80% and an MCH ([…], time 7 day) of 20.5 pg. It also gave an MCHC ([…], time 7 day) of 33.2%, an MCV ([…], time 7 day) of 61.9 fL and a Mono ([…], time 7 day) of 2.8%. It also gave a Neu ([…], time 7 day) of 14.6%, a PT ([…], time 7 day) of 13.1 s and a Plat ([…], time 7 day) of 123.5 x10_4/uL. It also gave an RBC ([…], time 7 day) of 681.6 x10_4/ul, a Ret ([…], time 7 day) of 5.3% and a WBC ([…], time 7 day) of 106.6 x10_2/uL. The APTT ([…], time 14 day) was 20.6 s, the Bas ([…], time 14 day) was 0% and the Eos ([…], time 14 day) was 1%. The Fbg ([…], time 14 day) was 286 mg/dL, the Hb ([…], time 14 day) was 14.6 g/dL and the Ht ([…], time 14 day) was 44%. For the same compound, the Lym ([…], time 14 day) was 75.2%, the MCH ([…], time 14 day) was 20.6 pg and the MCHC ([…], time 14 day) was 33.2%. For the same compound, the MCV ([…], time 14 day) was 62.1 fL, the Mono ([…], time 14 day) was 3% and the Neu ([…], time 14 day) was 20%. For the same compound, the PT ([…], time 14 day) was 13.1 s, the Plat ([…], time 14 day) was 121.3 x10_4/uL and the RBC ([…], time 14 day) was 708 x10_4/ul. It also gave a Ret ([…], time 14 day) of 4.5%, a WBC ([…], time 14 day) of 97.2 x10_2/uL and an APTT ([…], time 28 day) of 19.8 s. The Bas ([…], time 28 day) was 0%, the Eos ([…], time 28 day) was 1.2% and the Fbg ([…], time 28 day) was 274.2 mg/dL. The Hb ([…], time 28 day) was 16 g/dL, the Ht ([…], time 28 day) was 46.9% and the Lym ([…], time 28 day) was 76.2%. The MCH ([…], time 28 day) was 19.8 pg, the MCHC ([…], time 28 day) was 34.2% and the MCV ([…], time 28 day) was 57.7 fL. It also gave a Mono ([…], time 28 day) of 1.8%, a Neu ([…], time 28 day) of 19.8% and a PT ([…], time 28 day) of 13 s. For the same compound, the Plat ([…], time 28 day) was 110.8 x10_4/uL, the RBC ([…], time 28 day) was 812.6 x10_4/ul and the Ret ([…], time 28 day) was 2.2%. For the same compound, the WBC ([…], time 28 day) was 95.5 x10_2/uL, the KIDNEY_L ([…], time 7 day) was 1.1 g and the KIDNEY_R ([…], time 7 day) was 1.1 g. For the same compound, the KIDNEY_TOTAL ([…], time 7 day) was 2.2 g, the KIDNEY_L ([…], time 14 day) was 1.2 g and the KIDNEY_R ([…], time 14 day) was 1.2 g. It also gave a KIDNEY_TOTAL ([…], time 14 day) of 2.4 g, a KIDNEY_L ([…], time 28 day) of 1.2 g and a KIDNEY_R ([…], time 28 day) of 1.2 g. It also gave a KIDNEY_TOTAL ([…], time 28 day) of 2.5 g, an LIVER ([…], time 7 day) of 12.9 g and an LIVER ([…], time 14 day) of 14.2 g. For the same compound, the LIVER ([…], time 28 day) was 14.4 g, the A/G ([…], time 7 day) was 0.9 and the ALP ([…], time 7 day) was 1433 IU/L. The ALT ([…], time 7 day) was 45.4 IU/L, the AST ([…], time 7 day) was 66.6 IU/L and the BUN ([…], time 7 day) was 14.8 mg/dL. It also gave a CRE ([…], time 7 day) of 0.2 mg/dL, a Ca ([…], time 7 day) of 10.7 mg/dL and a Cl ([…], time 7 day) of 105.6 meq/L. The DBIL ([…], time 7 day) was 0.008 mg/dL, the GLC ([…], time 7 day) was 175.2 mg/dL and the IP ([…], time 7 day) was 7.5 mg/dL. The K ([…], time 7 day) was 4.4 meq/L, the LDH ([…], time 7 day) was 64.2 IU/L and the Na ([…], time 7 day) was 141.8 meq/L. It also gave a PL ([…], time 7 day) of 145.2 mg/dL, an RALB ([…], time 7 day) of 2.6 g/dL and a TBIL ([…], time 7 day) of 0.056 mg/dL. The TC ([…], time 7 day) was 70.4 mg/dL, the TG ([…], time 7 day) was 116.4 mg/dL and the TP ([…], time 7 day) was 5.6 g/dL. For the same compound, the gamma-GTP ([…], time 7 day) was 1 IU/L, the A/G ([…], time 14 day) was 0.9 and the ALP ([…], time 14 day) was 1376.8 IU/L. For the same compound, the ALT ([…], time 14 day) was 38.8 IU/L, the AST ([…], time 14 day) was 68.5 IU/L and the BUN ([…], time 14 day) was 15.8 mg/dL. It also gave a CRE ([…], time 14 day) of 0.2 mg/dL, a Ca ([…], time 14 day) of 11 mg/dL and a Cl ([…], time 14 day) of 104.5 meq/L. The DBIL ([…], time 14 day) was 0.015 mg/dL, the GLC ([…], time 14 day) was 197 mg/dL and the IP ([…], time 14 day) was 7.6 mg/dL. The K ([…], time 14 day) was 3.9 meq/L, the LDH ([…], time 14 day) was 73.5 IU/L and the Na ([…], time 14 day) was 141.2 meq/L. The PL ([…], time 14 day) was 145.5 mg/dL, the RALB ([…], time 14 day) was 2.7 g/dL and the TBIL ([…], time 14 day) was 0.06 mg/dL. For the same compound, the TC ([…], time 14 day) was 67.5 mg/dL, the TG ([…], time 14 day) was 149 mg/dL and the TP ([…], time 14 day) was 5.8 g/dL. It also gave a gamma-GTP ([…], time 14 day) of 1 IU/L, an A/G ([…], time 28 day) of 0.8 and an ALP ([…], time 28 day) of 981.6 IU/L. The ALT ([…], time 28 day) was 36 IU/L, the AST ([…], time 28 day) was 65.6 IU/L and the BUN ([…], time 28 day) was 17.2 mg/dL. It also gave a CRE ([…], time 28 day) of 0.3 mg/dL, a Ca ([…], time 28 day) of 10.5 mg/dL and a Cl ([…], time 28 day) of 105.2 meq/L. The DBIL ([…], time 28 day) was 0.008 mg/dL, the GLC ([…], time 28 day) was 178 mg/dL and the IP ([…], time 28 day) was 6.4 mg/dL. It also gave a K ([…], time 28 day) of 3.8 meq/L, an LDH ([…], time 28 day) of 173.6 IU/L and a Na ([…], time 28 day) of 142.6 meq/L. It also gave a PL ([…], time 28 day) of 136 mg/dL, an RALB ([…], time 28 day) of 2.8 g/dL and a TBIL ([…], time 28 day) of 0.068 mg/dL. For the same compound, the TC ([…], time 28 day) was 63 mg/dL, the TG ([…], time 28 day) was 112 mg/dL and the TP ([…], time 28 day) was 6.2 g/dL. It also gave a gamma-GTP ([…], time 28 day) of 1 IU/L.
